{"source": "paper PMC9501899", "about": "(Journal of the American Chemical Society, 2022)", "key": {"Rab10-pThr73 [1]": {"tested_on": "Rab10-pThr73", "assay": "Rab10 dephosphorylation in WT MEFs by Western blotting", "assay_type": "cell-based, mouse", "experimental": "(§1) These PROTACs were then biologically evaluated in mouse embryonic fibroblasts (MEFs) by Western blotting. Briefly, MEFs were treated with compounds at 33 nM and 1 μM for 4 h (Figure 2) and 24 h (Figure S2) separately, and the intracellular level of LRRK2, phosphorylated LRRK2 at Ser935, and phosphorylated Rab10 (pRab10) at Thr73 was determined. Rab10[5],[49] is one of the bona fide substrates of LRRK2, whose phosphorylation status is directly affected by the LRRK2 kinase activity and protein level. Phosphorylation of LRRK2 at Ser935 is a well-studied biomarker site used to assess the efficacy of type 1 LRRK2 inhibitors.[30]\n(§2) Primary MEFs were generated as described in a previous study.[80] Briefly, the uterine horn was collected from adult female mice at day E12.5 and transferred to a 10 cm tissue culture dish containing cold PBS. Two forceps were used to tear the yolk sacs to isolate each embryo. Forceps were cleaned thoroughly with 70% ethanol between each embryo isolation. The embryos were culled, and a tissue piece was collected in a polymerase chain reaction (PCR) tube for genotyping. The red tissue of the embryo was removed, and the remainder was minced with a scalpel blade and incubated with a 7.5 mL trypsin–ethylenediaminetetraacetic acid (EDTA) solution for 10 min in a 37 °C, 5% CO2 tissue culture incubator. The dish was removed from the incubator and checked under a light microscope for single cells. Complete media (7.5 mL) was added to the trypsinized cells, and the cell suspension was transferred to a 15 mL Falcon tube and centrifuged at 1200 rpm for 5 min at room temperature. The trypsin was aspirated, the cell pellet was resuspended in a 5 mL fresh complete media, and the cell suspension was plated in a 60 mm tissue culture dish and incubated in a 37 °C, 5% CO2 tissue culture incubator. The MEFs at this stage were considered as passage 0 and were passaged and expanded for experimental use once the genotype was confirmed by allelic sequencing and immunoblotting. MEFs were cultured in Dulbecco’s modified Eagle’s medium (DMEM) containing 10% (v/v) fetal bovine serum (FBS), 2 mM L-glutamine, 100 U/mL penicillin, and 100 μg/mL streptomycin supplemented with 1× nonessential amino acids and 1 mM sodium pyruvate.\n(§3) Culturing and passaging of adherent cell lines were carried out using an aseptic technique in CL1 or CL2 (for PBMC isolation) biological safety cabinets. All cells were incubated in a 37 °C incubator with 5% CO2. Cell lines were regularly tested for mycoplasma contamination. For Western blot assay, the cells were seeded in six-well plates. For immunoprecipitation of LRRK2, SH-SY5Y cells (cultured in DMEM-F12, supplemented with 15% (v/v) FBS, 100 U/mL penicillin and 100 μg/mL streptomycin, 1× nonessential amino acids, and 1 mM sodium pyruvate) were seeded in a 10 cm dish. All cells were treated with the indicated compounds such that the final concentration of DMSO was 0.1%. Following the treatment of cells with compounds at indicated concentrations and time periods, the media was removed and the cells were washed with PBS and lysed in a 100 μL ice-cold complete lysis buffer containing 50 mM tris–HCl pH 7.4, 1 mM EGTA, 10 mM 2-glycerophosphate, 50 mM sodium fluoride, 5 mM sodium pyrophosphate, 270 mM sucrose, supplemented with 1 μg/mL microcystin-LR, 1 mM sodium orthovanadate, complete EDTA-free protease inhibitor cocktail (Roche), and 1% (v/v) Triton X-100. The cells were immediately placed on ice and were scraped and collected into 1.5 mL Eppendorf tubes. Cell lysates were incubated on ice for 10 min prior to centrifugation at 15 000g at 4 °C for 15 min."}, "Rab10-pThr73 [2]": {"tested_on": "Rab10-pThr73", "assay": "Rab10 dephosphorylation in G2019S LRRK2 MEFs by Western blotting", "assay_type": "cell-based, mouse", "experimental": "as §1, §2, §3"}, "[3]": {"target": "T1, LRRK2-NanoLuc with VCB protein (Homo sapiens, UniProt P40337+Q5S007)", "T1 construct": "host or cells: HEK293 (digitonin-permeabilized), recombinant VCB added", "T1 sequence (Q5S007 whole entry)": "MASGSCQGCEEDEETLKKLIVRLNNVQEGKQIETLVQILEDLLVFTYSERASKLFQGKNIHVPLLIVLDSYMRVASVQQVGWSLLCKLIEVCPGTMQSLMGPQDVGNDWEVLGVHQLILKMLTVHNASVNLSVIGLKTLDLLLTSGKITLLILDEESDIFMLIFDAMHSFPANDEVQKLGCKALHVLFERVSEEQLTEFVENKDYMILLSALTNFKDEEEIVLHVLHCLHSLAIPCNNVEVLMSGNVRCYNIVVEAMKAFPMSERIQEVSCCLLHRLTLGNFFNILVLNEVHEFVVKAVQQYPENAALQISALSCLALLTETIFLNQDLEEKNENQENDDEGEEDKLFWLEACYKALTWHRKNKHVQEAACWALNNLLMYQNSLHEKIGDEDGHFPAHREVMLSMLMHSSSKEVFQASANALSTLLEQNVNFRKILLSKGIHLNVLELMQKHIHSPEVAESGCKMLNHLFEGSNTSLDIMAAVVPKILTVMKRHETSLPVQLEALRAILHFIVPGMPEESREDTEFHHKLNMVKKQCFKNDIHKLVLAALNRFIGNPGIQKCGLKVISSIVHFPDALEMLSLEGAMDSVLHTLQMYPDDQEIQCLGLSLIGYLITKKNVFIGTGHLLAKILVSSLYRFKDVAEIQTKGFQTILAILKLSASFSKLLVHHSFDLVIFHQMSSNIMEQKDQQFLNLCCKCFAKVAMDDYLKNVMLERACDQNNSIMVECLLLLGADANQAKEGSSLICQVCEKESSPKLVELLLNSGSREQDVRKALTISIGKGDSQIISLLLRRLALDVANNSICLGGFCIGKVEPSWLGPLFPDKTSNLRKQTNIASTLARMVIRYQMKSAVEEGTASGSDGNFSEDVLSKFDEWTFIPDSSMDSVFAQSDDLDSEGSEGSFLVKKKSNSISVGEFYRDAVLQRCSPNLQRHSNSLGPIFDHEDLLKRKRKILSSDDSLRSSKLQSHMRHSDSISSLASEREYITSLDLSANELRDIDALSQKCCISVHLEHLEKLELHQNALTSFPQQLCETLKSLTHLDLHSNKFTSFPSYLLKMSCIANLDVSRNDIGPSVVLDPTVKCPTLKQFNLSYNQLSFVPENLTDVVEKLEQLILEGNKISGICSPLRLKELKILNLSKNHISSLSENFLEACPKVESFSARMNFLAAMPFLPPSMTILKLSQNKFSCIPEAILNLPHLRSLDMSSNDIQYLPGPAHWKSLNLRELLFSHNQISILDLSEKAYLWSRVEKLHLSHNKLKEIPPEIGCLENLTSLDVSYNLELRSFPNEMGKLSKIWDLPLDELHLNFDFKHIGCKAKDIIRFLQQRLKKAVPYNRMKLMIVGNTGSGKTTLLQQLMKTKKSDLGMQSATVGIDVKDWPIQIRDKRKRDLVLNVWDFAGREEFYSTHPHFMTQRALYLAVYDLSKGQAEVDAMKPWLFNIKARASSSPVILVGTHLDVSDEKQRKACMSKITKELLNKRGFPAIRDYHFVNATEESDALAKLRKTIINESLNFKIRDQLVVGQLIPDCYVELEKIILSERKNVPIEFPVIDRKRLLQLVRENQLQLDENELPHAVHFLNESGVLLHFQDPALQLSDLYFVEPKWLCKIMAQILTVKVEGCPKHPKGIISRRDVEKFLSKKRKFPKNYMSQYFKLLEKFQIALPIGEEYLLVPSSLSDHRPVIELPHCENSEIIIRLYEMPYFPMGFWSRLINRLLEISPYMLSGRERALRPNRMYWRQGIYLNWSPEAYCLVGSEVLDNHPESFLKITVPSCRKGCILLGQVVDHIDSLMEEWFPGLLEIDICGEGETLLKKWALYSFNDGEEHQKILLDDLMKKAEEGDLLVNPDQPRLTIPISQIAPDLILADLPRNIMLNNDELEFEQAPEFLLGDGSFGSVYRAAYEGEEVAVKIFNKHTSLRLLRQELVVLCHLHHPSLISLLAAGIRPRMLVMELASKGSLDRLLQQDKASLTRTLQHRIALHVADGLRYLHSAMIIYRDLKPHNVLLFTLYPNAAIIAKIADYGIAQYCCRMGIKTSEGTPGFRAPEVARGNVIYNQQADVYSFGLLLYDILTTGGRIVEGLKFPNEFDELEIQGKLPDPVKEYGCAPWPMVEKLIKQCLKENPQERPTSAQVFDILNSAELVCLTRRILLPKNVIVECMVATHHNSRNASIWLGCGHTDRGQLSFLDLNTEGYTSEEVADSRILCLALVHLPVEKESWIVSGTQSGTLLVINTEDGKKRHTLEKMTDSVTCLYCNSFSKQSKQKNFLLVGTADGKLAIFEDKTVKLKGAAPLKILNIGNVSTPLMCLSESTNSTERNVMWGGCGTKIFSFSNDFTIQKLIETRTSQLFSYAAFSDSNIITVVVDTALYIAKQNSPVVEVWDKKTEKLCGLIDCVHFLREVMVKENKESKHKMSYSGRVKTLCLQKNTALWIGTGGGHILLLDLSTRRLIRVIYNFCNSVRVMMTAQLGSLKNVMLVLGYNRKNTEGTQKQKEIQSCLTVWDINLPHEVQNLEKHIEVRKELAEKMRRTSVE", "T1 sequence (P40337 54-213 limits assumed)": "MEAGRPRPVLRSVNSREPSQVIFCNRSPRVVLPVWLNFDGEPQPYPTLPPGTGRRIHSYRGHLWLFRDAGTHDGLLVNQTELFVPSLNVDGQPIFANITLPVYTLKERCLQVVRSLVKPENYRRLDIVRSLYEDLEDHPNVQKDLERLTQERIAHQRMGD", "T1 sequence (Q15370 1-104 partner limits assumed)": "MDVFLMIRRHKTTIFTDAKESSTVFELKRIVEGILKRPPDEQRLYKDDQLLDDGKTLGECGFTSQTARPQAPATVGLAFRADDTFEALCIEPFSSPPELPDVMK", "T1 sequence (Q15369 17-112 partner limits assumed)": "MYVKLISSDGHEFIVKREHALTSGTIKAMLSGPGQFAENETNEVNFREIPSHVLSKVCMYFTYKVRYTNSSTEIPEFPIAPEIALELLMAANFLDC", "assay": "NanoBRET-based ternary binding and cooperativity assay", "conditions": "for cooperativity (α): IC50 ratio without/with VCB; for IC50: compound preincubated with VCB, lysate of HEK293 cells, LRRK2 tracer", "experimental": "(A). Schematic illustration of the binary and ternary LRRK2 engagement assays. […] The fractional occupancy of the tracer is plotted against the concentrations of the compounds and fitted into the “nonlinear regression, one site-log IC50” model in GraphPad to obtain the IC50 values. The IC50 ratio between the blue curve and red cure is calculated as cooperativity (α). […] The NanoBRET signal was plotted against the compounds’ concentrations and fitted into “nonlinear regression, Gaussian” model in GraphPad. Error bars are mean ± SEM from three biological independent experiments.\nTitration of PROTACs to the lysed cells and LRRK2 tracer in the presence or absence of recombinant VCB protein (VHL complexed with elongin B–elongin C) gives ternary and binary binding affinities of PROTACs for LRRK2, respectively. Similarly, the ternary complex formation assay also used LRRK2-NanoLuc transiently expressed in HEK293 as the BRET donor, but the acceptor was recombinant VCB protein labeled with BODIPY^576/589via the NHS ester-activated cross-linking reaction. PROTACs that can bridge LRRK2 and VCB together will produce a BRET signal (Figure 10E).\nThe HEK293 cells were transfected with the LRRK2-NanoLuc fusion vector (Promega, NV3401) following Promega’s protocol and seeded into a white 384-well plate (Corning3570) at a density of 6000 cells/well. The cells were then treated with 50 μg/mL of digitonin, 125 nM of LRRK2 tracer, testing compounds at decreasing concentrations (11 concentrations with a 2-fold serial dilution starting from 10 μM) or testing compounds and VCB mix (11 concentrations with a 2-fold serial dilution starting from 10 μM compound). The first six concentrations of VCB start from 32 μM with a 2-fold dilution, while the last five concentrations of VCB were kept fixed at 1 μM. The NanoBRET NanoGlo Substrate (Promega, N157C) was added at concentrations recommended by the manufacturer’s protocol. In the maximum signal control samples (DMSO control), DMSO was added instead of testing compounds. In the minimum signal control samples (no tracer control), DMSO and LRRK2 tracer dilution buffer were used to replace testing compounds and LRRK2 tracer separately. The filtered luminescence was measured within 10 min following the addition of the substrate on a PHERAstar (BMG LABTECH) plate reader equipped with a 450 nm bandpass filter (donor) and a 600 nm long-pass filter (acceptor). The fractional occupancy was calculated according to the equation: fractional occupancy = (mBRETtesting compound – mBRETno tracer control)/(mBRETDMSO control – mBRETno tracer control)."}, "WT LRRK2": {"target": "T2, WT LRRK2 (Mus musculus, UniProt Q5S006)", "T2 construct": "endogenous in cells; host or cells: wild-type primary MEFs", "assay": "LRRK2 degradation in WT MEFs by Western blotting", "assay_type": "cell-based", "experimental": "as §1, §2, §3"}, "[4]": {"conditions": "Mus musculus, 4 h, G2019S LRRK2 MEFs, read-out: EC50 G2019S pRab10"}}}
{"smiles": "CNc1nc(Nc2ccc(C(=O)N3CCN(C[C@H]4CC[C@@H](CSC(C)(C)[C@H](NC(=O)C5(F)CC5)C(=O)N5C[C@H](O)CC5C(=O)NCc5ccc(-c6scnc6C)cc5)CC4)CC3)cc2OC)ncc1Cl", "note": "(stereo partly shown) [XL01134]", "values": [{"measurement": "WT-pRab10 percent label at the end of the time curve", "setting": "Rab10-pThr73 [1]; 0.3 µM", "result": 88, "unit": "%"}, {"measurement": "IC50", "setting": "Rab10-pThr73 [1]; Mus musculus, 4 h, WT MEFs, read-out: WT-pRab10 IC50", "result": 74, "unit": "nM"}, {"measurement": "pRab10 inhibited", "setting": "Rab10-pThr73 [2]; 33 nM/4 h, G2019S LRRK2 MEFs", "result": "> 60", "unit": "%"}, {"measurement": "IC50", "setting": "Rab10-pThr73 [2]; Mus musculus, 4 h, G2019S LRRK2 MEFs, read-out: GS-pRab10 IC50", "result": 12, "unit": "nM"}, {"measurement": "cooperativity (α)", "setting": "[3]", "result": 1.4}, {"measurement": "IC50", "setting": "[3]", "result": 790, "unit": "nM"}, {"measurement": "Dmax at 0.3 µM", "setting": "WT LRRK2; 300 nM, read-out: Dmax,WT, time-dependent degradation", "result": 75, "unit": "%"}, {"measurement": "DC50", "setting": "WT LRRK2; 4 h", "result": 32, "unit": "nM"}]}
{"smiles": "CNc1nc(Nc2ccc(C(=O)N3CCN(CCOCCOCCSC(C)(C)[C@H](NC(=O)C4(F)CC4)C(=O)N4C[C@H](O)C[C@H]4C(=O)NCc4ccc(-c5scnc5C)cc4)CC3)cc2OC)ncc1Cl", "note": "[SD75]", "values": [{"measurement": "WT-pRab10 percent label at the end of the time curve", "setting": "Rab10-pThr73 [1]; 1 µM", "result": 41, "unit": "%"}, {"measurement": "EC50", "setting": "Rab10-pThr73 [1]; Mus musculus, 24 h, WT MEFs, read-out: EC50 for the dephosphorylation of Rab10 (WT-pRab10)", "result": 2270, "unit": "nM"}, {"measurement": "GS-pRab10 percent label at the end of the time curve", "setting": "Rab10-pThr73 [2]; 1 µM", "result": 74, "unit": "%"}, {"measurement": "pRab10 dephosphorylated", "setting": "Rab10-pThr73 [2]; 1 µM", "result": "75–90%"}, {"measurement": "EC50", "setting": "Rab10-pThr73 [2]; Mus musculus, 24 h, G2019S LRRK2 MEFs, read-out: EC50 for the dephosphorylation of Rab10 (GS-pRab10)", "result": 379, "unit": "nM"}, {"measurement": "IC50", "setting": "[3]", "result": 1400, "unit": "nM"}, {"measurement": "Dmax at 1 µM", "setting": "WT LRRK2; 1 μM (1000 nM), read-out: Dmax (WT LRRK2), time-dependent degradation", "result": 52, "unit": "%"}, {"measurement": "Dmax", "setting": "WT LRRK2; dose-dependent degradation, 24 h", "result": 51, "unit": "%"}]}
{"smiles": "CNc1nc(Nc2ccc(C(=O)N3CCN(C[C@H]4CC[C@H](CSC(C)(C)[C@H](NC(=O)C5(F)CC5)C(=O)N5C[C@H](O)CC5C(=O)NCc5ccc(-c6scnc6C)cc5)CC4)CC3)cc2OC)ncc1Cl", "note": "(stereo partly drawn) [XL01126, (2S,4R)-1-((R)-3-((((1R,4R)-4-((4-(4-((5-Chloro-4-(methylamino)pyrimidin-2-yl)amino)-3-methoxybenzoyl)piperazin-1-yl)methyl)cyclohexyl)methyl)thio)-2-(1-fluorocyclopropane-1-carboxamido)-3-methylbutanoyl)-4-hydroxy-N-(4-(4-methylthiazol-5-yl)benzyl)pyrrolidine-2-carboxamide]", "values": [{"measurement": "WT-pRab10 percent label at the end of the time curve", "setting": "Rab10-pThr73 [1]; 0.3 µM", "result": 94, "unit": "%"}, {"measurement": "EC50", "setting": "Rab10-pThr73 [1]; Mus musculus, 4 h, WT MEFs, read-out: EC50 WT-pRab10", "result": 54, "unit": "nM"}, {"measurement": "inhibition at 0.033 µM", "setting": "Rab10-pThr73 [2]; Mus musculus, 33 nM/4 h, G2019S LRRK2 MEFs, read-out: pRab10 inhibited", "result": "> 60", "unit": "%"}, {"measurement": "EC50", "setting": "Rab10-pThr73 [2]; [4]", "result": 15, "unit": "nM"}, {"measurement": "cooperativity (α)", "setting": "[3]", "result": 5.7}, {"measurement": "IC50", "setting": "[3]", "result": 350, "unit": "nM"}, {"measurement": "DC50", "setting": "WT LRRK2; 4 h", "result": 32, "unit": "nM"}]}
{"smiles": "CNc1nc(Nc2ccc(C(=O)N3CCN(C[C@H]4CC[C@H](CSC(C)(C)[C@H](NC(=O)C5(F)CC5)C(=O)N5C[C@@H](O)C[C@H]5C(=O)NCc5ccc(-c6scnc6C)cc5)CC4)CC3)cc2OC)ncc1Cl", "note": "[cis-XL01126, (2S,4S)-1-((R)-3-((((1R,4R)-4-((4-(4-((5-Chloro-4-(methylamino)pyrimidin-2-yl)amino)-3-methoxybenzoyl)piperazin-1-yl)methyl)cyclohexyl)methyl)thio)-2-(1-fluorocyclopropane-1-carboxamido)-3-methylbutanoyl)-4-hydroxy-N-(4-(4-methylthiazol-5-yl)benzyl)pyrrolidine-2-carboxamide]", "values": [{"measurement": "EC50", "setting": "Rab10-pThr73 [2]; [4]", "result": 116, "unit": "nM"}, {"measurement": "degradation of WT LRRK2 (in words)", "setting": "WT LRRK2; 4 h", "result": "no degradation"}]}
